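Test compounds were applied to cells in 96-well plates for 48 hours at 5 doses. TGI marks complete inhibition of growth.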
test system: NCI/ADR-RES ovarian; experiment: growth of human tumour cells (NCI), 48 h

SMILES	TGI
C=C(C)C1CC=C(C)C(=O)C1 (stereo unspecified)	> 100 µM
CC(=O)c1c(-c2ccc(Cl)cc2)c(-c2ccc(Cl)cc2)n[nH]c1=O	> 100 µM
CC(=O)C(C(=O)c1ccc(C)cc1)[C@@H]1OC(C)(C)O[C@@H]1[C@H]1COC(C)(C)O1 (stereo partly specified)	> 70.9 µM
CC12CCCC(O)C1CCC1=CC3(CCC12)SCCS3 (stereo unspecified)	> 10 µM
CCCCNC(=S)Nc1nc(C(=O)NNC(=S)NCC)cs1	> 100 µM

test system: RPMI-8226 leukemia; experiment: growth of human tumour cells (NCI), 48 h

SMILES	TGI
O=C(O)CC1OCC=C2CN3CCC45c6ccccc6NC4C1C2CC35 (stereo unspecified)	> 100 µM
C=C(C)C1CC=C(C)C(=O)C1 (stereo unspecified)	> 100 µM
N#Cc1ccc(NC(=NCC(=O)O)Nc2cccc3ccccc23)cc1	> 10 µM
CC(=O)c1c(-c2ccc(Cl)cc2)c(-c2ccc(Cl)cc2)n[nH]c1=O	55.4 µM
CC(=O)C(C(=O)c1ccc(C)cc1)[C@@H]1OC(C)(C)O[C@@H]1[C@H]1COC(C)(C)O1 (stereo partly specified)	12.5 µM
CC12CCCC(O)C1CCC1=CC3(CCC12)SCCS3 (stereo unspecified)	> 10 µM
CCCCNC(=S)Nc1nc(C(=O)NNC(=S)NCC)cs1	> 100 µM

test system: HS 578T breast; experiment: growth of human tumour cells (NCI), 48 h

SMILES	TGI
C=C(C)C1CC=C(C)C(=O)C1 (stereo unspecified)	> 100 µM
CC(=O)c1c(-c2ccc(Cl)cc2)c(-c2ccc(Cl)cc2)n[nH]c1=O	> 100 µM
CC(=O)C(C(=O)c1ccc(C)cc1)[C@@H]1OC(C)(C)O[C@@H]1[C@H]1COC(C)(C)O1 (stereo partly specified)	> 59.8 µM

test system: HCT-15 colon; experiment: growth of human tumour cells (NCI), 48 h

SMILES	TGI
COC(=O)C1=CC2C(=O)c3ccccc3C1(c1ccccc1)N2C1CCCCC1 (stereo unspecified)	> 100 µM
O=C(O)CC1OCC=C2CN3CCC45c6ccccc6NC4C1C2CC35 (stereo unspecified)	> 100 µM
C=C(C)C1CC=C(C)C(=O)C1 (stereo unspecified)	> 100 µM
N#Cc1ccc(NC(=NCC(=O)O)Nc2cccc3ccccc23)cc1	> 10 µM
CC(=O)c1c(-c2ccc(Cl)cc2)c(-c2ccc(Cl)cc2)n[nH]c1=O	> 100 µM
CC(=O)C(C(=O)c1ccc(C)cc1)[C@@H]1OC(C)(C)O[C@@H]1[C@H]1COC(C)(C)O1 (stereo partly specified)	37 µM
CC12CCCC(O)C1CCC1=CC3(CCC12)SCCS3 (stereo unspecified)	> 10 µM
CCCCNC(=S)Nc1nc(C(=O)NNC(=S)NCC)cs1	> 100 µM

test system: MDA-MB-435; experiment: growth of human tumour cells (NCI), 48 h

SMILES	TGI
COC(=O)C1=CC2C(=O)c3ccccc3C1(c1ccccc1)N2C1CCCCC1 (stereo unspecified)	43.4 µM
O=C(O)CC1OCC=C2CN3CCC45c6ccccc6NC4C1C2CC35 (stereo unspecified)	> 100 µM
C=C(C)C1CC=C(C)C(=O)C1 (stereo unspecified)	> 100 µM
CC(=O)c1c(-c2ccc(Cl)cc2)c(-c2ccc(Cl)cc2)n[nH]c1=O	> 100 µM
CC(=O)C(C(=O)c1ccc(C)cc1)[C@@H]1OC(C)(C)O[C@@H]1[C@H]1COC(C)(C)O1 (stereo partly specified)	> 59.8 µM
CC12CCCC(O)C1CCC1=CC3(CCC12)SCCS3 (stereo unspecified)	> 10 µM
CCCCNC(=S)Nc1nc(C(=O)NNC(=S)NCC)cs1	> 100 µM

test system: MCF7 breast; experiment: growth of human tumour cells (NCI), 48 h

SMILES	TGI
COC(=O)C1=CC2C(=O)c3ccccc3C1(c1ccccc1)N2C1CCCCC1 (stereo unspecified)	36.8 µM
O=C(O)CC1OCC=C2CN3CCC45c6ccccc6NC4C1C2CC35 (stereo unspecified)	> 100 µM
C=C(C)C1CC=C(C)C(=O)C1 (stereo unspecified)	> 100 µM
N#Cc1ccc(NC(=NCC(=O)O)Nc2cccc3ccccc23)cc1	> 10 µM
CC(=O)c1c(-c2ccc(Cl)cc2)c(-c2ccc(Cl)cc2)n[nH]c1=O	> 100 µM
CC(=O)C(C(=O)c1ccc(C)cc1)[C@@H]1OC(C)(C)O[C@@H]1[C@H]1COC(C)(C)O1 (stereo partly specified)	15.4 µM
CC12CCCC(O)C1CCC1=CC3(CCC12)SCCS3 (stereo unspecified)	> 10 µM
CCCCNC(=S)Nc1nc(C(=O)NNC(=S)NCC)cs1	> 100 µM

test system: HOP-62 NSCLC; experiment: growth of human tumour cells (NCI), 48 h

SMILES	TGI
COC(=O)C1=CC2C(=O)c3ccccc3C1(c1ccccc1)N2C1CCCCC1 (stereo unspecified)	36.8 µM
O=C(O)CC1OCC=C2CN3CCC45c6ccccc6NC4C1C2CC35 (stereo unspecified)	> 100 µM
C=C(C)C1CC=C(C)C(=O)C1 (stereo unspecified)	> 100 µM
N#Cc1ccc(NC(=NCC(=O)O)Nc2cccc3ccccc23)cc1	> 10 µM
CC(=O)C(C(=O)c1ccc(C)cc1)[C@@H]1OC(C)(C)O[C@@H]1[C@H]1COC(C)(C)O1 (stereo partly specified)	> 58.4 µM
CC12CCCC(O)C1CCC1=CC3(CCC12)SCCS3 (stereo unspecified)	> 10 µM
CCCCNC(=S)Nc1nc(C(=O)NNC(=S)NCC)cs1	> 100 µM

test system: NCI-H522 lung; experiment: growth of human tumour cells (NCI), 48 h

SMILES	TGI
COC(=O)C1=CC2C(=O)c3ccccc3C1(c1ccccc1)N2C1CCCCC1 (stereo unspecified)	82.3 µM
O=C(O)CC1OCC=C2CN3CCC45c6ccccc6NC4C1C2CC35 (stereo unspecified)	> 100 µM
C=C(C)C1CC=C(C)C(=O)C1 (stereo unspecified)	> 100 µM
CC(=O)C(C(=O)c1ccc(C)cc1)[C@@H]1OC(C)(C)O[C@@H]1[C@H]1COC(C)(C)O1 (stereo partly specified)	11.3 µM
CC12CCCC(O)C1CCC1=CC3(CCC12)SCCS3 (stereo unspecified)	> 10 µM
CCCCNC(=S)Nc1nc(C(=O)NNC(=S)NCC)cs1	> 100 µM
